Results published in ChEMBL document CHEMBL1156829 (Proc Natl Acad Sci U S A, 2008).

Tests used:
[1] = tested on: Plasmodium falciparum; experiment: NOVARTIS: Inhibition of Plasmodium falciparum 3D7 (drug-susceptible) proliferation in erythrocyte-based infection assay; type: functional, organism-based; conditions: Plasmodium falciparum, 3D7
[2] = tested on: Plasmodium falciparum; experiment: NOVARTIS: Inhibition of Plasmodium falciparum W2 (drug-resistant) proliferation in erythrocyte-based infection assay; type: functional, organism-based; conditions: Plasmodium falciparum, W2; read-out: EC50
[3] = NOVARTIS: Cytotoxicity against human hepatocellular carcinoma cell line (Huh7); type: toxicity, cell-based, Huh-7; conditions: Huh7 cells (hepatocellular carcinoma cell line)

Row | SMILES | EC50 [1] [µM] | EC50 [2] [µM] | CC50 [3] [µM]
1 | CSC1=NC(=Nc2c(C)cccc2C)C2(CCC(C(C)(C)C)CC2)N1c1ccc(Cl)cc1 (configuration not stated) | 1.48 | > 10 | > 67.3
2 | CCN(CC)CCNC(=O)C1c2ccccc2C(=O)N(Cc2ccc(F)cc2)C1c1ccc(OC)cc1 (configuration not stated) | 0.782 | 2.42 | 46.4
3 | COc1ccc2nc(C)cc(Nc3ccc(Cl)cc3)c2c1 | 1.23 | 2.69 | 18.3
4 | COc1cccc(NC(=O)C2C3C=CC4(O3)C2C(=O)N(Cc2ccc3c(c2)OCO3)C4C(=O)NC2CCCCC2C)c1 (configuration not stated) | > 12.5 | > 5.31 | > 100
5 | COCCN(CC(=O)NCc1ccc(OC2CCN(CC(c3ccccc3)c3ccccc3)CC2)cc1)S(=O)(=O)c1ccccc1 | 1 | 0.526 | > 10
6 | c1ccc(-c2nc(-c3ccc4cccnc4c3)n(-n3c(-c4ccc5cccnc5c4)nc(-c4ccccc4)c3-c3ccccc3)c2-c2ccccc2)cc1 | 3.64 | 1.51 | 29.1
7 | O=S(=O)(NC1=CC2C(=Nc3ccc(NS(=O)(=O)c4ccc(Br)cc4)cc3N2c2ccccc2)C=C1)c1ccc(Br)cc1 (configuration not stated) | 0.929 | > 1.47 | > 10
8 | CC1(C)N=C(N)N=C(N)N1c1ccc(Br)cc1 | 0.000592 | 0.533 | > 10
9 | CON(C)C=C(C(=O)Nc1ccc(C(F)(F)F)cc1)C(=O)Nc1ccc(C(F)(F)F)cc1 | 0.659 | 0.515 | > 10
10 | CN(Cc1ccccc1)c1cc(-c2ccccn2)nc(-c2ccccn2)n1 | 0.531 | 0.514 | > 10
11 | CN(Cc1ccccc1)c1nc2c(c(=O)[nH]c(=O)n2C)n1CCCSc1ncccn1 | > 12.5 | 5.19 | > 100
12 | CC(=O)c1c(C)oc2ccc(NS(=O)(=O)c3cccc(C(=O)O)c3)cc12 | > 1.25 | > 0.515 | > 10
13 | COc1cc(OC)c(OC)cc1CN1CCN(C(C)C)CC1 | > 1.01 | > 1.48 | > 10
14 | COc1cccc(-n2sc3c(c2=S)-c2cc(OC)ccc2NC3(C)C)c1 | > 0.991 | 1.48 | > 10
15 | Cc1ccc(NC(=O)CCCCC(=O)Nc2ccc(C)c(Br)c2)cc1Br | > 1.16 | > 1.45 | > 10
16 | COc1cc(/C=C(\C#N)c2nc3ccccc3[nH]2)ccc1OCc1ccc(C)cc1 | 1.05 | 1.47 | > 10
17 | O=C(Nc1ccc(-c2nc3cc(NC(=O)c4ccc(Cl)cc4)ccc3[nH]2)cc1)c1ccc(Cl)cc1 | 0.993 | > 12.5 | 83.8
18 | CCCCCC[n+]1ccccc1C=Cc1ccc(N(C)C)cc1 | 0.118 | 0.238 | 1.6
19 | Oc1ccccc1Nc1nc(NC2CCCC2)c2ccccc2n1 | 0.53 | 0.877 | 16.7
20 | COc1cccc(N2CCN(CCNCCOc3ccccc3)[C@@H](Cc3ccccc3)C2)c1 | 0.703 | 0.383 | > 7.31
21 | Clc1cccc(CCNC2CCN(CCc3ccccc3)CC2)c1 | 0.17 | 0.651 | 12.4
22 | CC(C)CNC(=O)c1cnc(NCCCN2CCCCC2C)nc1NCC(C)C (configuration not stated) | 0.344 | 1.46 | > 10
23 | CCc1ccc2[nH]c(=O)c(CN(CCN(C)C)C(=S)NCCCN(C)C)cc2c1 | 1.76 | > 1.46 | > 10
24 | COc1cccc(C=NNC(=O)c2ccccc2O)c1O | 5.38 | 0.969 | 6.64
25 | Oc1ccc(-c2ccnc3cc(Cl)ccc23)cc1CNCCN1CCOCC1 | 0.984 | 0.622 | > 11.9
26 | COc1ccc(C2(C(=O)NCc3ccccc3Cl)CCCC2)cc1OC | 12 | 5.22 | > 100
27 | COc1ccc(C(=O)N(CCCC(C)Nc2cc(OC)cc3cccnc23)Cc2ccccc2OC)cc1 (configuration not stated) | 0.713 | 0.27 | 5.18

Row | SMILES | EC50 [1] [µM] | EC50 [2] [µM] | CC50 [3] [µM]
28 | CC(C)(C)c1ncccc1OC(=O)C12CC3CC(CC(C3)C1)C2 | 0.349 | > 1.47 | > 10
29 | Clc1ccc(-c2nc3cc(Cl)cnc3[nH]2)cc1 | 0.565 | > 1.25 | > 8.52
30 | CCc1ccc(C(C)=NNc2nc(O)cc(-c3ccccc3)n2)cc1 | 1.78 | > 1.46 | > 10
31 | CN(C)c1ccc(N=C2NC(=O)/C(=C/c3ccc(Cl)cc3)S2)cc1 | 0.819 | 1.46 | > 10
32 | N#CCCN(CC1CCCO1)C(=O)Nc1ccc(Cl)c(C(F)(F)F)c1 (configuration not stated) | > 1.02 | > 0.523 | > 10
33 | Cc1ccc(C)c(CN2C(=O)c3ccccc3S(=O)(=O)c3ccc(C(=O)NCCCN4CCCC(C)C4)cc32)c1 (configuration not stated) | 1.07 | 1.75 | 12
34 | Cc1ccc(Cl)cc1N1C(=O)[C@@H]2[C@H](C1=O)C1c3ccccc3C=CN1[C@@H]2C(=O)c1cccs1 (some centres not stated) | 1.06 | 0.529 | > 10
35 | COC(=O)c1c(-c2c(F)cccc2Cl)noc1C=CNc1ccc(OC)cc1 | 10.2 | 5.29 | > 100
36 | COc1cc(NC(C)CCCN(Cc2ccccc2OC)C(=O)C(C)C)c2ncccc2c1 (configuration not stated) | 0.684 | 0.406 | > 7.7
37 | Cc1cc(I)ccc1N1C(=O)C2C3c4ccccc4C(CO)(c4ccccc43)C2C1=O (configuration not stated) | > 11.2 | > 10.1 | > 67.9
38 | Cc1c(C(=O)Nc2ccccc2)sc2ncn(Cc3ccccc3F)c(=O)c12 | > 0.875 | > 1.48 | > 10
39 | O=C(COC(c1ccccc1)c1c(Cl)cncc1Cl)N1CCNCC1 (configuration not stated) | 0.592 | 2.57 | 48.2
40 | N=c1c2c(n(Cc3ccc(Cl)cc3)c3c1CCC3)CCCC2 | 0.222 | 0.533 | > 10
41 | CCN(CC)CCCNC(=S)N(Cc1ccc(F)cc1)Cc1cc2cc(C)cc(C)c2[nH]c1=O | 2.76 | 1.2 | 22.5
42 | c1ccc(C[C@H]2CN(c3ccc4ccccc4c3)CCN2CCNCC2CCCO2)cc1 (some centres not stated) | 0.273 | 0.38 | 2.54
43 | CCCN(CC(=O)Nc1cc(C(C)(C)C)nn1-c1cccc(C)c1C)C(=O)C1CCCCC1 | 1.18 | > 1.39 | 9.45
44 | Cc1oc2c(c1C(=O)NC1CCS(=O)(=O)C1)C(=O)c1ccccc1C2=O (configuration not stated) | 0.437 | 0.127 | 2.4
45 | Nc1cc2c(cc1Br)CCCC2 | > 1.03 | > 1.47 | > 10
46 | C=CCNC(=O)c1ccc2c(c1)N=C(c1ccc(F)cc1)N(CCCC)C2 | 0.191 | 2.45 | 16.9
47 | C=CCNc1ncnc2c1c(-c1ccccc1)cn2-c1ccccc1 | 4.52 | 5.22 | > 100
48 | CCOC(=O)CCS(=O)(=O)c1ccc(Br)cc1 | 0.237 | > 1.46 | > 10
49 | C=CCN1C(=O)/C(=C\c2cc(Cl)c(O)c(OC)c2)C(=O)NC1=S | 2.11 | > 1.48 | > 10
50 | Cc1ccc(N2C3c4ccccc4N(S(=O)(=O)c4ccc(C)cc4)C2c2ccccc2N3S(=O)(=O)c2ccc(C)cc2)cc1 | 0.72 | 1.49 | > 10
51 | CN(C)CCCNCc1cc(-c2cccnc2)ccc1O | 0.241 | 0.514 | > 10
52 | c1ccc(N=c2sc(-c3ccccc3)cn2CCCCCCn2cc(-c3ccccc3)sc2=Nc2ccccc2)cc1 | 0.739 | 0.525 | > 10
53 | Oc1ncnc2c1C(c1ccccc1)c1c(O)ncnc1O2 | > 0.882 | > 0.462 | > 8.83
54 | O=C(NCc1ccccc1)c1cccc2c(Br)cccc12 | > 1.1 | 1.47 | > 10
